How the values were obtained:
[1] = tested on: OPM2-Luc tumor xenografts; experiment: OPM2-Luc xenograft efficacy, intermittent dosing; type: in vivo; conditions: for animals tumor free: day 26
Protocol: OPM2-Luc cells (5×10^6) were implanted subcutaneously into female athymic nude mice. […] With all tested doses and schedules, dose-dependent TGI was observed (FIG. 5). […] Six of 10 animals in the 60 mg/kg 5 days on/2 days off group and 10 of 10 animals in the once daily group were tumor free on day 26.

dogs = experiment: 28-day GLP IV toxicology study in dogs; type: in vivo; conditions: dog
Excerpt: The doses selected for the 28-day IV rat and dog toxicology studies were intended to characterize the toxicity of the compound of Formula I and provide data to support a starting dose in the first-in-human (FIH) study. An IV route of administration and a dosing schedule of 2 days on/5 days off was used to support the anticipated clinical route and dosing schedule.

dog blood = experiment: In vitro hemolysis of whole blood, dog; conditions: 0.1 and 1.0 mg/mL, vehicles containing hydroxypropyl-β-cyclodextrin
[2] = in vivo
[3] = tested on: Adult patients with relapsed or refractory AML; experiment: Dose-escalation study in relapsed or refractory AML, data cutoff May 17, 2019; type: in vivo
Protocol: Escalating doses started at 60 mg/m^2. For dose levels ≥180 mg/m^2, a lead-in dose of 120 mg/m^2 was implemented during week 1. Primary objectives included the evaluation of safety, tolerability, and pharmacokinetics. The secondary objective was a preliminary evaluation of efficacy, assessed using ELN criteria. Exploratory endpoints included pharmacodynamic evaluation of MCL-1 inhibition in circulating AML blasts.

MM1R = experiment: Cell viability (CellTiterGlo), MM1R; type: cell-based; conditions: MM.1R, Multiple myeloma, 24 hours, 10% FBS, read-out: AMS 176 IC50
MM1S = experiment: Cell viability (CellTiterGlo), MM1S; type: cell-based; conditions: Homo sapiens, MM1.S, Multiple myeloma, 24 hours, 10% FBS, read-out: AMS 176 IC50
[4] = tested on: OPM2-Luc tumor xenografts; experiment: OPM2-Luc xenograft efficacy, once-weekly dosing; type: in vivo
Protocol: Female athymic nude mice were injected subcutaneously with 5×10^6 human OPM2-Luc multiple myeloma tumor cells. […] Tumor volume and body weight were measured twice per week through day 26. […] In the 50 mg/kg intraperitoneal group, 98% regression was observed (p<0.0001) (FIG. 6).

KMS26 = experiment: Cell viability (CellTiterGlo), KMS26; type: cell-based; conditions: KMS-26; KMS26, Multiple myeloma; 24 hours; 10% FBS; read-out: AMS 176 IC50
RL = experiment: Cell viability (CellTiterGlo), RL; type: cell-based; conditions: Homo sapiens, NHL, 24 hours, 10% FBS, high dose 20 μM, read-out: AMS 176 IC50
Rabbit MCL1 = Rabbit MCL1 (Oryctolagus cuniculus, UniProt G1T2Q0); experiment: Cell-free TR-FRET BIM-binding assay, Rabbit MCL1; conditions: BIM-binding partner Rabbit MCL1; n = 3
TF-1 = experiment: Cell viability (CellTiterGlo), TF-1; type: cell-based; conditions: Homo sapiens; TF-1, AML; 24 hours; 10% FBS; read-out: AMS 176 IC50
[5] = tested on: subjects with relapsed/refractory multiple myeloma; experiment: Phase 1 FIH study, multiple myeloma part 1b (QW); type: in vivo, human
Protocol: In part 1a, subjects were enrolled across 8 cohorts, with doses ranging from 30 to 240 mg/m^2 QD2. In part 1b, subjects were enrolled across 2 cohorts, with doses of 120/180-mg/m^2 or 120/240-mg/m^2.

Pharmacokinetics in rats = conditions: male, Sprague Dawley, rat, in vivo, read-out: mean terminal elimination half-life (t1/2,z) (converted)
Excerpt: The pharmacokinetics (PK) of the compound of Formula I after single intravenous (IV) or oral administration were characterized in male CD1 mice, female athymic nude mice, male Nu/Nu mice, male Sprague Dawley rats, male beagle dogs, and male cynomolgus monkeys. The clearance (CL) of the compound was low in mice, rats, dogs, and monkeys relative to their hepatic blood flow. Volume of distribution at steady state (Vss) in mice, rats, dogs, and monkeys was variable across the species.

[6] = tested on: OPM2 multiple myeloma tumor cell line; experiment: Viability of OPM2 cells; type: cell-based; conditions: Homo sapiens
Toledo = experiment: Cell viability (CellTiterGlo), Toledo; type: cell-based; conditions: Homo sapiens, NHL, 24 hours, 10% FBS, read-out: AMS 176 IC50
human blood = experiment: In vitro hemolysis of whole blood, human; conditions: highest concentration tested, 0.25 mg/mL
Karoas620 = experiment: Cell viability (CellTiterGlo), Karoas620; type: cell-based; conditions: Karoas620, Multiple myeloma; 24 hours; 10% FBS; read-out: AMS 176 IC50
[7] = TEAEs occurring in ≥2 patients, N = 11

Sequence of Rabbit MCL1 (G1T2Q0 1-352): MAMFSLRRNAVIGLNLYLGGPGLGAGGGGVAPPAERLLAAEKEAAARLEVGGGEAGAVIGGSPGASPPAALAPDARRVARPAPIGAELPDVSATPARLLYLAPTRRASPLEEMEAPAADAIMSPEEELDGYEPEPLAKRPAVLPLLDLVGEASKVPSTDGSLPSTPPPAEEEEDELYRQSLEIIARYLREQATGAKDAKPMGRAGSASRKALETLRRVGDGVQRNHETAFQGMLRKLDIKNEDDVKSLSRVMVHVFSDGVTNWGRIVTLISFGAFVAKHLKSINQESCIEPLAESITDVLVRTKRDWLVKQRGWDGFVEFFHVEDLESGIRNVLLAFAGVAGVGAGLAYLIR

## CO[C@H]1/C=C/C[C@H](C)[C@@H](C)S(=O)(=O)NC(=O)c2ccc3c(c2)N(C[C@@H]2CC[C@H]21)C[C@@]1(CCCc2cc(Cl)ccc21)CO3 [AMG 176]
[1]; 30 mg/kg 2 days on/5 days off
  TGI: 54%
[1]; 30 mg/kg 5 days on/2 days off
  TGI: 85%
[1]; 30 mg/kg and 60 mg/kg, two days on/5 days off and 5 days on/2 days off, summary statement
  effect on growth of established OPM2-Luc tumors: significantly inhibited the growth
[1]; 30 mg/kg once daily oral gavage
  TGI: 84%
[1]; 60 mg/kg 2 days on/5 days off
  tumor regression: 21%
[1]; 60 mg/kg 5 days on/2 days off
  tumor regression: 87%
  animals tumor free: Six of 10
[1]; 60 mg/kg once daily
  tumor regression: 100%
  animals tumor free: 10 of 10
[1]; 30 or 60 mg/kg, all schedules
  overt toxicity by body weight and body score assessment: No evidence of overt toxicity
dogs
  finding related to morbidity and mortality: mucosal epithelial degeneration in the small and large intestines
dogs; IV, 28-day
  dose with mortality: 20 mg/kg
dogs; IV, 2 days on/5 days off, 28-day
  highest-nonseverely-toxic dose (HNSTD): 10 mg/kg
Dog blood
  hemolysis of whole blood: cased hemolysis
[2]
  phototoxicity: not phototoxic
[3]; 60-180 mg/m^2
  plasma exposures versus dose: increased in a dose-related manner
[3]; AML, 11 patients
  Treatment-related AEs, patients: 46%
  fatal adverse events: No fatal adverse events were observed
  grade ≥3 TEAEs, patients: 73%
  grade ≥3 anemia: 18%
  grade ≥3 treatment-related AEs, patients: 18%
  nausea, any grade: 36%
  peripheral edema, any grade: 36%
[3]; AML, 11 patients, 60-180 mg/m^2 IV
  TEAEs of any grade, patients: 91%
[3]; Grade ≥3 TEAEs occurring in ≥2 patients, N = 11
  Anemia, Grade ≥3: 2 (18.2) n (%)
[3]; IV infusion over a minimum of 2 hours
  time of maximum plasma concentrations: close to the end of intravenous infusion
[3]; Patients (N = 11)
  All TEAEs: 10 (90.9) n (%)
  TEAEs Fatal: 0 n (%)
  TEAEs Grade ≥3: 8 (72.7) n (%)
  TEAEs Serious: 8 (72.7) n (%)
[3]; [7]
  Anemia: 2 (18.2) n (%)
  Hypokalemia: 2 (18.2) n (%)
  Hypomagnesemia: 2 (18.2) n (%)
  Increased blood bilirubin level: 2 (18.2) n (%)
  Nausea: 4 (36.4) n (%)
  Peripheral edema: 4 (36.4) n (%)
  Vomiting: 2 (18.2) n (%)
[3]; at the data cutoff date
  maximum tolerated dose: not yet reached
[3]; monotherapy, dose levels evaluated
  safety, tolerability, and pharmacokinetic profile: acceptable
[3]; patient achieving CRi, 3 hours postinfusion
  pharmacodynamic impact in peripheral blood AML blasts: release of the proapoptotic protein Bax and activation of effector caspase 3
MM1R
  IC50: 1.14 µM
MM1S
  IC50: 5.12 µM
[4]; 50 mg/kg intraperitoneally once per week
  tumor regression: 98%
[4]; 50 mg/kg orally once per week
  TGI: 97%
[4]; 100 mg/kg once per week, day 26
  animals tumor free: Five out of 10
[4]; 100 mg/kg once-weekly oral, as stated in summary b107
  tumor growth inhibition (TGI): 70%
[4]; 100 mg/kg orally once per week
  tumor regression: 70%
[4]; once-weekly dosing groups
  overt toxicity by changes in body weight: No evidence of overt toxicity
KMS26
  IC50: 0.248 µM
RL
  IC50: > 20 µM
Rabbit MCL1
  IC50: 0.000191 µM
TF-1
  IC50: 2.09 µM
[5]; MM part 1b
  Grade 3 adverse events, subjects: 83%
  adverse events considered related to AMG 176, subjects: 83 %/a
  adverse events leading to discontinuation of investigational product: no adverse event led to discontinuation
  fatal adverse events: no fatal adverse events occurred
  grade 4 adverse events, subjects: 17%
  hypertension of grade 3 or higher: 33%
  neutropenia of grade 3 or higher: 67%
  serious adverse events: No serious adverse events were reported
[5]; MM part 1b QW, 6 subjects
  adverse events, subjects: 83%
[5]; MM part 1b, any grade
  diarrhea, subjects: 33%
  fatigue, subjects: 33%
  hypertension, subjects: 33%
  nausea, subjects: 50%
  neutropenia, subjects: 67%
[5]; MM part 1b, 6 subjects, preliminary
  exposures (Cmax and AUC) versus dose: generally increased with increasing doses
Pharmacokinetics in rats
  half-life: 19.5 h
[6]; OPM-2, growth medium containing 5% human serum
  IC50: 0.703 µM
[6]; OPM-2, growth medium containing 10% fetal bovine serum
  IC50: 0.236 µM
[6]; OPM-2, serum-free growth medium
  IC50: 0.0155 µM
Toledo
  IC50: 9.7 µM
Human blood
  hemolysis of whole blood: not hemolytic
Karoas620
  IC50: 0.487 µM

From patent US12622918B2, “Formulations and dosages for administering a compound that inhibits MCL1 protein” (Amgen Inc., priority 2019, dated 2026)
